pKi: −log10 of the molar value. Counter-ions that a name gives are not always drawn.
Assays:
[1] = biological target: α2C receptors; details: read-out: Affinity at α2C receptors; cited from earlier work
[2] = biological target: cloned hD1 receptors (Homo sapiens, UniProt P21728); experiment: Cyclic AMP accumulation assay; type: cell-based
cloned hD1 receptors, sequence (P21728 whole entry): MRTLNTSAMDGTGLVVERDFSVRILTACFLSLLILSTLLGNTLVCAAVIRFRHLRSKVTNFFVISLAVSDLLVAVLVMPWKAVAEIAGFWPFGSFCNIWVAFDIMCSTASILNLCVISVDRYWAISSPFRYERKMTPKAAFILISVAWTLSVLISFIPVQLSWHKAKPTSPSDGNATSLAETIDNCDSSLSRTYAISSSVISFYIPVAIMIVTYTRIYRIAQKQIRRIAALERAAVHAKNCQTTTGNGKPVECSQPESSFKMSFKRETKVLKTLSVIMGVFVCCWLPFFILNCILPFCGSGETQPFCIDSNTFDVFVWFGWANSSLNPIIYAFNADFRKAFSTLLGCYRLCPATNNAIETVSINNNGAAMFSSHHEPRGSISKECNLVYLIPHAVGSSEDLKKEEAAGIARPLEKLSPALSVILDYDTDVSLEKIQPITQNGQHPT

SMILES	pKi [1]	Agonist character at D1 receptors [2]
Oc1cc2c(cc1O)C1c3ccccc3CNC1CO2 (centres unmarked) [DOX, doxanthrine]	8.70	
Oc1ccc2c(c1O)C[C@@H](c1ccccc1)[C@@H]1CCNC[C@@H]21 [compound 3, Trans-5-Phenyl-1,2,3,4,4a,5,6,10b-octahydrobenzo[h]isoquinoline-7,8-diol Hydrobromide]		full agonist

Source: paper PMC2941879 (Bioorganic & medicinal chemistry, 2010)
